Results on nine molecules are retold here after PubChem BioAssay (NCI).

Test systems include IGROV1 ovarian; NCI-H23 lung; NCI-H460 lung; NCI-H522 lung; SF-268 CNS; SW-620 colon; T-47D breast; UACC-257 melanoma.
What all share (experiment): NCI-60 cell line screen, 48 h

Where “and” joins values, the source holds several entries; their conditions need not be identical. Identical values can stand only once.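 Test compounds were applied to cells in 96-well plates for 48 hours at 5 doses. GI50 = concentration required for 50% inhibition of growth. Definition used: TGI = concentration required for complete inhibition of growth.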

For the molecule `O=C(Nc1ccc(I)cc1F)c1cc(I)ccc1O`, the GI50 was 0.611 µM with IGROV1 ovarian; 0.531 µM with NCI-H23 lung; 0.506 µM in the assay on NCI-H460 lung; 0.327 µM in the assay on NCI-H522 lung; 0.704 µM in the assay with SF-268 CNS; 0.866 µM with SW-620 colon. Also, the GI50 in the assay with T-47D breast is 0.649 µM; in the assay on UACC-257 melanoma it was 0.73 µM. In addition, the TGI in the assay on IGROV1 ovarian is more than 100 µM; in the assay on NCI-H23 lung, 2.25 µM; with NCI-H460 lung, 22.4 µM; with NCI-H522 lung, 21.8 µM; in the assay on SF-268 CNS, more than 100 µM; with SW-620 colon, more than 36 µM. Further, the TGI in the assay with T-47D breast came out at 2.94 µM; with UACC-257 melanoma, 2.6 µM.
Consider `CCCn1c(N)c(C(=O)CNc2ccc(I)cc2)c(=O)[nH]c1=O`, for which the GI50 in the assay on IGROV1 ovarian was 18 µM; in the assay on NCI-H23 lung, more than 61.4 µM; in the assay on NCI-H460 lung, 0.393 µM; in the assay on NCI-H522 lung, 16 µM; in the assay on SF-268 CNS, 4.55 µM; in the assay with SW-620 colon it was 2.89 µM. The GI50 in the assay on T-47D breast is more than 100 µM. Also, the TGI in the assay on IGROV1 ovarian, in the assay on NCI-H23 lung, in the assay with NCI-H460 lung, with NCI-H522 lung, in the assay on SF-268 CNS and in the assay with SW-620 colon was more than 100 µM in each case. Further, the TGI with T-47D breast and with UACC-257 melanoma was more than 100 µM throughout.
`CCOC(=O)c1ccccc1-c1c2ccc(=[N+](C)C)cc-2oc2cc(N(C)C)ccc12`: the GI50 with IGROV1 ovarian is 0.332 µM; with NCI-H23 lung, 0.231 µM; in the assay with NCI-H460 lung, 0.23 µM; in the assay with NCI-H522 lung, 0.306 µM; with SF-268 CNS, 0.332 µM; in the assay with SW-620 colon, 0.261 µM. For the same molecule, the GI50 in the assay with T-47D breast is 0.104 µM; with UACC-257 melanoma, 0.198 µM. Further, the TGI with IGROV1 ovarian turned out to be 16.1 µM; in the assay with NCI-H23 lung it was 11.9 µM; in the assay with NCI-H460 lung it was 4.42 µM; with NCI-H522 lung it was 16.4 µM; with SF-268 CNS, 27.5 µM; in the assay on SW-620 colon it was 17.4 µM. Moreover, the TGI was 19.8 µM in the assay with T-47D breast and 7.58 µM in the assay with UACC-257 melanoma.
For `Cc1c(C(=O)O[C@H]2[C@@H]3[C@H](C)CC[C@H]3[C@]3(C)O[C@@]2(C2CCCCC2)C[C@H]3OC(=O)CO)ccc2ccccc12`, the GI50 was 8.39 µM with IGROV1 ovarian; 8.29 µM with NCI-H23 lung; 7.87 µM in the assay on NCI-H460 lung; 7.11 µM in the assay on NCI-H522 lung; 3.49 µM with SF-268 CNS; 8.01 µM in the assay on SW-620 colon. Moreover, the GI50 in the assay on T-47D breast was 5.37 µM; in the assay with UACC-257 melanoma, 7.83 µM. The TGI in the assay on IGROV1 ovarian was 17.3 µM; with NCI-H23 lung it was 17.7 µM; in the assay with NCI-H460 lung, 16.6 µM; with NCI-H522 lung, 13.8 µM; in the assay with SF-268 CNS it was 11.8 µM; in the assay on SW-620 colon, 16.3 µM. For the same molecule, the TGI in the assay with T-47D breast is 11.6 µM; with UACC-257 melanoma, 14.8 µM.
Take `O=S(=O)(O)ONC1=NCCN1`: the GI50 in the assay with IGROV1 ovarian is more than 100 µM; with NCI-H23 lung it was 94.2 µM; with NCI-H460 lung, more than 100 µM; in the assay on NCI-H522 lung, more than 100 µM; in the assay with SF-268 CNS, more than 100 µM; in the assay with SW-620 colon, 72.5 µM. Further, the GI50 with T-47D breast was 38.8 µM; in the assay on UACC-257 melanoma, more than 100 µM. For the same molecule, the TGI with IGROV1 ovarian, in the assay with NCI-H23 lung, in the assay with NCI-H460 lung, in the assay with NCI-H522 lung, with SF-268 CNS and with SW-620 colon was more than 100 µM throughout. In addition, the TGI in the assay on T-47D breast and in the assay on UACC-257 melanoma was more than 100 µM each time.
`O=C(O)C(=O)CBr`: the GI50 in the assay on IGROV1 ovarian was 33.5 µM and 62.1 µM; with NCI-H23 lung, > 48.4 µM and 19.9 µM; in the assay with NCI-H460 lung it was > 100 µM and 21.2 µM; with NCI-H522 lung it was 2.22 µM; in the assay with SF-268 CNS, > 85.2 µM and 18.3 µM; with SW-620 colon, 6.8 µM. For the same molecule, the GI50 was > 100 µM and 25.5 µM with T-47D breast; > 78.3 µM and 18.4 µM with UACC-257 melanoma. Besides, the TGI in the assay with IGROV1 ovarian was more than 100 µM; in the assay on NCI-H23 lung, > 74 µM and 39.5 µM; with NCI-H460 lung, > 100 µM and 41.9 µM; with NCI-H522 lung, > 31.9 µM and 4.66 µM; in the assay on SF-268 CNS, > 100 µM and 32.5 µM; in the assay on SW-620 colon, > 35.3 µM and 21.6 µM. Also, the TGI is > 100 µM and 64.7 µM with T-47D breast; > 100 µM and 33.6 µM in the assay with UACC-257 melanoma.
`NS(=O)(=O)c1ccc(NC(=O)Nc2ccccc2F)cc1`: the TGI in the assay with IGROV1 ovarian, with NCI-H23 lung, with NCI-H460 lung, in the assay on NCI-H522 lung, in the assay on SF-268 CNS and in the assay with SW-620 colon was more than 100 µM in each case. Further, the TGI in the assay on T-47D breast and in the assay on UACC-257 melanoma was more than 100 µM each time.
Turning to `CC[C@H](NC(=O)[C@H](CS(=O)(=O)CC1CC1)N[C@@H](c1ccc(F)cc1)C(F)(F)F)C(=O)C(=O)NC1CC1`, the GI50 in the assay on IGROV1 ovarian, in the assay with NCI-H23 lung, in the assay with NCI-H460 lung, with NCI-H522 lung, in the assay with SF-268 CNS and with SW-620 colon was more than 100 µM throughout. In addition, the GI50 in the assay on T-47D breast and in the assay on UACC-257 melanoma was more than 100 µM in each case. The TGI with IGROV1 ovarian, in the assay with NCI-H23 lung, in the assay with NCI-H460 lung, in the assay on NCI-H522 lung, with SF-268 CNS and in the assay with SW-620 colon was more than 100 µM each time. Further, the TGI in the assay on T-47D breast and with UACC-257 melanoma was more than 100 µM in each case.
As for `C=CCCC(=O)N1C=CC(=O)[C@H](O)[C@@H]1/C=C/c1ccccc1`, the GI50 in the assay on IGROV1 ovarian is 9.4 µM; with NCI-H23 lung it was 23.6 µM; in the assay with NCI-H460 lung it was 6.65 µM; with NCI-H522 lung, more than 32.5 µM; in the assay with SF-268 CNS, 7.03 µM; with SW-620 colon, 12.8 µM. For the same molecule, the values for the GI50 with T-47D breast and in the assay on UACC-257 melanoma were 15.5 µM and 18 µM, respectively. In addition, the TGI with IGROV1 ovarian, in the assay on NCI-H23 lung, in the assay on NCI-H460 lung, in the assay with NCI-H522 lung, in the assay on SF-268 CNS and with SW-620 colon was more than 32.5 µM in each case. Moreover, the TGI with T-47D breast and with UACC-257 melanoma was more than 32.5 µM throughout.
